Measurements published in publication PMC7192455, “Exploring novel bacterial terpene synthases” (PLoS ONE, 2020).

Assays:
Experiment in all cases: product identification by GC-QToF
Type in all cases: biochemical
[1] = molecular target: T1, RrNerS (AHY47823.1), linalool/nerolidol synthase (Rubrobacter radiotolerans, UniProt A0A023X648); settings: 5 mM MgCl2, 25 mM Tris-HCl pH 7.8, 28 C overnight
T1 construct: gene RradSPS_2540; codon-optimised, pETM11, N-terminal His-tag (TEV cleavable), E. coli, Ni-NTA purified
T1 sequence (A0A023X648 1-315): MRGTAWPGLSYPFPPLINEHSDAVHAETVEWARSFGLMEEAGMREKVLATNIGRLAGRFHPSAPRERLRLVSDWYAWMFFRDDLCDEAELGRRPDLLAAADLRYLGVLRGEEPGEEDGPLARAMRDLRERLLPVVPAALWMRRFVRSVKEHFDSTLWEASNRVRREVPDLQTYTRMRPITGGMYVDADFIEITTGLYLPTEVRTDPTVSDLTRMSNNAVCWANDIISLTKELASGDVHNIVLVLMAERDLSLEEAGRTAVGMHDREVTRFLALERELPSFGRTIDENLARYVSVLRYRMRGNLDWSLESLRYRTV

[2] = molecular target: T2, ScGeoS, geosmin synthase (CAB41566.1) (Streptomyces coelicolor, UniProt Q9X839); settings: 75 uM FPP, 5 mM MgCl2, 25 mM Tris-HCl pH 7.8, 28 C overnight; products geosmin, germacradienol, germacrene D; positive control
T2 construct: gene cyc2; bi-domain enzyme, recombinant, purified; pETM11 N-terminal His-tag

[3] = molecular target: T3, ScAroS (KYF56472.1), aromandendrene synthase (Sorangium cellulosum, UniProt Z9C2K8JLD0); settings: 75 uM FPP, 5 mM MgCl2, 25 mM Tris-HCl pH 7.8, 28 C overnight; product aromadendrene
T3 construct: codon-optimised, pETM11, N-terminal His-tag (TEV cleavable), E. coli, Ni-NTA purified
T3 sequence (Z9C2K8JLD0 1-329): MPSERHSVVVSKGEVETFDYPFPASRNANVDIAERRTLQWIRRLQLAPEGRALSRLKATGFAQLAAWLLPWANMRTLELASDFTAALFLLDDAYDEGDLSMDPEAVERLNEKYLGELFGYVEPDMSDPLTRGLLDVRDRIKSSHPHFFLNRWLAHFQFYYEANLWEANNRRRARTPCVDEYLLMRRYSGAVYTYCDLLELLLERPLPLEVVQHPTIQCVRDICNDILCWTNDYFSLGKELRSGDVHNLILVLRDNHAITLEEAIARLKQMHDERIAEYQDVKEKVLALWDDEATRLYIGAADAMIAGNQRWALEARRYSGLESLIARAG

[4] = molecular target: T4, MiGerS (ADU09376.1), germacatriene synthase (Micromonospora aurantiaca (nom. illeg.), UniProt A0ABQ6UH67); settings: 75 uM FPP, 5 mM MgCl2, 25 mM Tris-HCl pH 7.8, 28 C overnight; products germacrene A (seen as beta-elemene) and 1(10),4,11-germacratriene
T4 construct: gene F6X54_13130; codon-optimised, pETM11, N-terminal His-tag (TEV cleavable), E. coli, Ni-NTA purified

RrBerS (AHY45426.1) = molecular target: T5, RrBerS (AHY45426.1) (Rubrobacter radiotolerans, UniProt A0A023WZP4); settings: 5 mM MgCl2, 25 mM Tris-HCl pH 7.8, 28 C overnight
T5 construct: gene RradSPS_0143; codon-optimised, pETM11, N-terminal His-tag (TEV cleavable), E. coli, Ni-NTA purified
T5 sequence (A0A023WZP4 1-348): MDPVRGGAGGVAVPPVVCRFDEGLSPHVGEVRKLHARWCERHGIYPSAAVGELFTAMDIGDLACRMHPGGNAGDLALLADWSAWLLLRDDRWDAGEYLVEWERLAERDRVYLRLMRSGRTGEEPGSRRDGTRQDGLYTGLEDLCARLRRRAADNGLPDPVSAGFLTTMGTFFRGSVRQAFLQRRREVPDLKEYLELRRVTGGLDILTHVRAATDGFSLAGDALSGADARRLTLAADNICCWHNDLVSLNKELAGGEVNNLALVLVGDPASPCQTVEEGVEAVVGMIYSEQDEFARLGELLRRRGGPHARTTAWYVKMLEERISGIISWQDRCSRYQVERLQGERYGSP

KaGerS (AHH94051.1) = molecular target: T6, KaGerS (AHH94051.1) (Kutzneria viridogrisea, UniProt W5W0G4); settings: 75 uM FPP, 5 mM MgCl2, 25 mM Tris-HCl pH 7.8, 28 C overnight; products germacradienol and germacrene D
T6 construct: gene KALB_676; codon-optimised, pETM11, N-terminal His-tag (TEV cleavable), E. coli, Ni-NTA purified
From the text: product identification by GC-QToF on KaGerS (AHH94051.1) | we tested its functionality with FPP in in vitro conditions. This yielded germacradienol and germacrene D

[5] = molecular target: T7, ScEpiS (CAN96536.1), 10-epi-cubebol synthase (Sorangium cellulosum, UniProt A9GK58); settings: 5 mM MgCl2, 25 mM Tris-HCl pH 7.8, 28 C overnight
T7 construct: gene sce6369; codon-optimised, pETM11, N-terminal His-tag (TEV cleavable), E. coli, Ni-NTA purified
T7 sequence (A9GK58 1-315): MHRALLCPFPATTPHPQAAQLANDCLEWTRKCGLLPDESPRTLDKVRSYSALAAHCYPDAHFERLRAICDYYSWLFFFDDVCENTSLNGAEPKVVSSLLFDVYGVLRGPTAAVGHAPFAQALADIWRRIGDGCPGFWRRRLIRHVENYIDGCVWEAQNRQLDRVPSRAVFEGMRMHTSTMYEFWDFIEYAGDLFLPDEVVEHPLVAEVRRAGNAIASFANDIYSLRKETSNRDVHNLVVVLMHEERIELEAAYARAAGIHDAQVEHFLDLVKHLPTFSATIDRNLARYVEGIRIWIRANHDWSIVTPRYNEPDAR

T4 sequence (A0ABQ6UH67 entry or part of it): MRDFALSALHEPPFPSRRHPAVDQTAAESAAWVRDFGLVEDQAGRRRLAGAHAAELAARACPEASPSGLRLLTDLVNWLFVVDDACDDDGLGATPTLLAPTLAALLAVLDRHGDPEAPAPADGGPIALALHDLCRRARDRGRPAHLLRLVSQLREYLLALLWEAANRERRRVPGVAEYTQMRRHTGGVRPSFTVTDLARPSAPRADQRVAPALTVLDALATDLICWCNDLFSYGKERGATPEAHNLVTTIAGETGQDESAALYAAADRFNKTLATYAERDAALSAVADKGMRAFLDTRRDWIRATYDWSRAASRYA
T2 sequence (Q9X839 whole entry): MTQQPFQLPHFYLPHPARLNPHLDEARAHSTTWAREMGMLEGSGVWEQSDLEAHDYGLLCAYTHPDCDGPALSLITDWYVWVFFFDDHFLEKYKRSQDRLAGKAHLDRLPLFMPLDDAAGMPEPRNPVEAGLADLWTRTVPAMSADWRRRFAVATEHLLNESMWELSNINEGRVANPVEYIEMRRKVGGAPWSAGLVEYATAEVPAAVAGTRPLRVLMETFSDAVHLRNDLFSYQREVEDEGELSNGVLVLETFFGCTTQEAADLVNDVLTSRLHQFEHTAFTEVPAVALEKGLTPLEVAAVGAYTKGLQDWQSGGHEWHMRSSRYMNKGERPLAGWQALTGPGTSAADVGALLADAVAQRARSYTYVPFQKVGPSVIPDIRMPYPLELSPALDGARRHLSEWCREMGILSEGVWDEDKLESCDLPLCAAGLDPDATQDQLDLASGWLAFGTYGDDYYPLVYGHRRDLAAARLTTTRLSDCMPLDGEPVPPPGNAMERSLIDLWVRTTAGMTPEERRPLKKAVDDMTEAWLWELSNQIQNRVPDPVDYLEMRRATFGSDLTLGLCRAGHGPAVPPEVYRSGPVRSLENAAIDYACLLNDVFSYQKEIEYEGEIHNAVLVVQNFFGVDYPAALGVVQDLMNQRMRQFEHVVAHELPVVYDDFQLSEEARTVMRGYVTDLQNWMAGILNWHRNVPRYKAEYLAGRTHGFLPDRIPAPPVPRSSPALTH
T6 sequence (W5W0G4 1-363): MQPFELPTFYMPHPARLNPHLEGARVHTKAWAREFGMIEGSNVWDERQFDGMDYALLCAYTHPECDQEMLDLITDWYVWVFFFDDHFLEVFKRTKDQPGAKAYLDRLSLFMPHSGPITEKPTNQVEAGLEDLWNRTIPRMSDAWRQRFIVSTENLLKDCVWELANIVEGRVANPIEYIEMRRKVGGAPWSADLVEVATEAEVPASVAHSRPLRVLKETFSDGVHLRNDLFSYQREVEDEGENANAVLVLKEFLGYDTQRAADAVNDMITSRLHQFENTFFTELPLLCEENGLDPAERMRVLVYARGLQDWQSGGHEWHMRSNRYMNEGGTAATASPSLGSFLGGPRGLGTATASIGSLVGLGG

Compound	product identification by GC-QToF ([1]; 75 uM FPP, product trans-nerolidol)	product identification by GC-QToF [2]	product identification by GC-QToF [3]	product identification by GC-QToF [4]	product identification by GC-QToF (RrBerS (AHY45426.1); 75 uM FPP, product alpha-bergamotene)	product identification by GC-QToF (KaGerS (AHH94051.1))	product identification by GC-QToF ([5]; 75 uM FPP, products 10-epi-cubebol and others)	product identification by GC-QToF ([1]; 100 uM GPP, products R- and S-linalool)	product identification by GC-QToF (RrBerS (AHY45426.1); 100 uM GPP, product linalool)	product identification by GC-QToF ([5]; 100 uM GPP, products cis/trans-beta-ocimene and linalool)
CC(C)=CCC/C(C)=C/CC/C(C)=C/COP(=O)(O)OP(=O)(O)O [FPP]	with FPP yielded a single product that was identified as trans-nerolidol by GC–QToF analysis	purified geosmin synthase yielded the sesquiterpenoids geosmin, germacradienol and germacrene D	converted FPP into only aromadendrene in in vitro analysis	incubated with FPP yielded β-elemene, and 8-isopropenyl-1,5-dimethyl-1,5-cyclodecadiene	also showed activity with both FPP and GPP, yielding α-bergamotene	we tested its functionality with FPP in in vitro conditions. This yielded germacradienol and germacrene D	When ScEpiS was incubated with FPP the products obtained were 10-epi-α-cubinene			
CC(C)=CCC/C(C)=C/COP(=O)(O)OP(=O)(O)O [GPP]								Incubation with GPP yielded both R- and S- linalool isomers	also showed activity with both FPP and GPP, yielding α-bergamotene	with GPP yielded the monoterpene products cis- and trans-β-ocimene
